According to publication PMC7321210, “Synthesis and Studies of the Inhibitory Effect of Hydroxylated Phenylpropanoids and Biphenols Derivatives on Tyrosinase and Laccase Enzymes” (Molecules, 2020):
“Also recorded” adds a separate entry of the source.

Experiments:
Tenebrio molitor = test: Insecticidal properties on mealworm larvae; assay type: in vivo; details: Tenebrio molitor, topical, 120 h, larvae immersed three seconds in 2.5 mL acetone solution 6.4 mg/mL, reared five days; DFB as Dimilin WP 25% a.i., 25.6 mg/mL; read-out: Mortality% (Mean ± SD)
Protocol: Late instar larvae of Tenebrio molitor from a twenty-year-old insect culture at the Research Institute on Terrestrial Ecosystems (National Research Council, Sassari, Italy) were used in the experiments. The species was reared on bran flour, with the integration of fresh vegetables, at 25 °C, 65% relative humidity and 16:8 hours light/darkness.
One hundred medium instar larvae were isolated in a petri dishes (diam. 50 mm). They were then immersed for three seconds in 2.5 mL of an acetone solution (concentration 6.4 mg/mL w:v) of one of the fourteen compounds listed in Table 3. In addition, a treatment with the commercial formulation Dimilin (WP, 25% a.i. diflubenzuron) (acetone solution, 25.6 mg/mL w:v) and a negative control (no treatment) were tested.
After treatment, the larvae were subdivided into five 20-specimen groups and reared for five days in a small PVC box (150 L × 120 W × 50 H mm) with the same feed and conditions as standard rearing. Mortality was recorded daily.
The statistical analysis was conducted with the R software (R Development Core Team 2016). Mortality data, expressed as a percentage, were arcsin(√x)-transformed to satisfy assumptions of normality. ANOVA was performed by the Duncan test for mean separation.

laccase = test: Laccase amperometric biosensor: IC50 and type of inhibition; assay type: biochemical; details: for Type of Inhibition Laccase: Lineweaver-Burk plot, biosensor exposed 30 min to twice the lowest inhibiting concentration; for VMAX, substrate + inhibitor, LAC: dopamine calibration 0-140 mM after inhibitor exposure, n=4 biosensors; for IC50: enzyme immobilized on biosensor, dopamine 50 µM, PBS pH 6.0
Protocol: (§1) Inhibition types and IC50 were assessed by means of carbon-based amperometric biosensors [61, 62, 63, 64, 65], that are described in the Supplementary Materials. During the experiments carried out to determine the IC50 values, the lowest inhibitory concentration of each compound was also evaluated.
(§2) To verify the inhibition types, the following protocol was used. An initial calibration with dopamine, ranging between 0 and 140 mM, was performed in order to ascertain the values of VMAX and KM. Another calibration with the same protocol was performed after having exposed the biosensors to twice the lowest inhibiting concentration of each inhibitor, in order to ensure the safe inhibition of enzymatic activity. The biosensors were exposed to the inhibitor for 30 min and after having reached a stabile baseline, a calibration with dopamine, ranging between 0 and 140 mM, was performed and the value of VMAX and KM were calculated. The variations of both VMAX and KM were then analyzed by using the Lineweaver-Burk plot in order to identify the type of inhibition induced by the tested compound. The statistical difference in VMAX and KM, before exposing the biosensors to the inhibitor and then afterwards, was calculated by means of a paired t-test (p < 0.05).
(§3) The biosensors were prepared starting from a Teflon™-insulated silver wire (30 mm in length; Ø = 125 μm),
(§4) Briefly, 1 mm of the silver wire was exposed and then introduced into a silica
(§5) capillary cylinder (10 mm in length; I.D. Ø = 180 μm, Polymicro Technologies, Phoenix, AZ, USA) partly
(§6) packed with graphite-loaded (55% w/w) epoxy resin. By mixing 850 mg of graphite with 500 mg of Araldite-
(§7) M and 200 mg of hardener, a preliminary disc electrode of carbon-composite was fabricated (Ø = 180 μm; area:
(§8) 2.5 × 10−4 cm2) by filling the silica capillary tubing with the mixture. The silver wire assured a good electrical
(§9) contact. After 24 h at 40 °C, the electrode surface was cleaned using a high-speed drill (Dremel® 300) equipped
(§10) with an aluminum oxide grinding wheel. On top of the electrode surface a 1 µl of Tyrosinase or Laccase
(§11) solution was deposited. After the complete evaporation of water at room temperature, the biosensor was
(§12) quickly dipped in the polyurethane solution in order to entrap the enzyme on the electrode surface, and after
(§13) the complete evaporation of the solvent biosensors were put to stabilize in PBS pH=6.0 overnight.
(§14) The electrochemical measurements were performed at room temperature in a classical three-electrode
(§15) electrochemical cell consisting of four biosensors as working electrodes, a reference electrode (Ag/AgCl in
(§16) Constant potential amperometry (CPA) was used for in-vitro calibrations and for inhibition evaluation
(§17) experiments by applying a constant potential of -50 mV against an Ag/AgCl reference electrode, by means of
(§18) a four-channel potentiostat (eDAQ Quadstat, e- Corder 410, eDAQ Europe, Poland) and the software Chart (v
(§19) 5.5, eDAQ Europe, Poland). Thus, once the stabilization of the baseline of biosensors was reached, increasing
(§20) volumes of a stock solution of dopamine 1 M were added in order to obtain different concentrations ranging

mushroom tyrosinase = test: Spectrophotometric (UV-Vis) detection of tyrosinase inhibitory activity; assay type: biochemical; details: for tyrosinase inhibition in words, tyrosine versus dopamine as substrate: UV-Vis, absorbance at 311 or 472 nm, Figure 3
Protocol: Kinetic assays were carried out by measuring the appearance of the product of either tyrosine or dopamine oxidation in the reaction medium at 311 and 472 nm, respectively, in a Shimadzu UV-2501 spectrophotometer (Shimadzu, Kyoto, Japan) equipped with the UV-Probe software, using a tandem quartz cuvette (Hellma, Milan, Italy) with a 2 × 4.375-mm path length [1, 2, 51]. Briefly, one side of the dual chamber cuvette was filled with 1000 µl of mushroom tyrosinase solution in 50 mM phosphate buffer, pH 6.8, 166 Units/mL using tyrosine as substrate or a 16.6 Units/mL when dopamine was used as substrate. The other chamber was loaded with 980 µL of substrate solution (180 µM tyrosine or 18 µM dopamine) in 20 mM phosphate buffer (pH 6.8) added of either 20 µL of DMSO (control) or 20 µL of a 2 mM (0.2 mM in dopamine experiments) solution of tested inhibitors in DMSO. A background spectrum in the 250–700 nm range was acquired with a 2.0 nm slit and fast speed before starting the reaction. Thereafter, the solutions in the two chambers were mixed by inversion and the UV-Vis spectra were acquired at increasing time intervals. Spectra were recorded at 311 or 472 nm in the presence of the inhibitor before mixing, and after either 24 or 10 min, using tyrosine or dopamine as a substrate, respectively. Data processing was performed with UV Probe and OriginPro 2019 (v. 9.60) softwares.
The mushroom tyrosinase was used as purchased without further purification. All solutions (tyrosinase, substrates and inhibitors) were filtered through a 0.45-μm syringe filter, aliquoted in Eppendorf tubes, and stored in freezer. The relative concentration was determined spectrophotometrically (εtyrosine 274.6 nm = 1420 M^−1·cm^−1; εdopamine at 280 nm = 2670 M^−1·cm^−1; εtyrosinase at 280 nm = 1426 M^−1·cm^−1).
Tyrosine was dissolved in 50 mM phosphate buffer, pH 6.8, final concentration 80 µM and with the added inhibitor (final concentration 20 µM) and tyrosinase (83 U/mL). The absorbance values were determined after 24 min of incubation. In the presence of dopamine, experiments were performed using 10-fold diluted solutions, and the absorbance values were determined after 10 min of incubation.

PC12 cells [1] = test: Viability of PC12 cells (MTT assay); assay type: cell-based, rat; details: cell viability < 80%; screening from 1 to 40 μM, 24 h
Protocol: Initially, the inhibitor concentrations on PC12 cells, i.e., a rat pheochromocytoma-derived cell line, were screened to assess the possible cytotoxicity of the molecules under study [55].
(§21) 1.4 Viability and oxidative stress assays
(§22) PC12 cells, rat pheochromocytoma-derived cell line (ATCCCRL-1721) (passages 12–25) were maintained at 37
(§23) °C humidified air containing 5% CO2/95% atmospheric air and cultured in a 60 mm plastic culture plates with
(§24) Dulbecco’s modified Eagle’s medium supplemented with 10% horse serum, 5% fetal bovine serum and 1% of
(§25) penicillin/streptomycin. PC12 cells were treated for 24 h with the different compounds at different
concentrations ranging from 1 to 40 μM, to evaluate their eventual toxicity.
(§26) For all treatments cell viability was measured by means of MTT assay, as explained in
the following paragraph [17].
(§27) At the end of the exposure time of each experiment, the cell viability was assessed by means of MTT (3-(4,5-
(§28) dimethyl-thiazol-2-yl)-2,5-diphenyltetrazoliumbromide) assay. For this purpose, 1 mg/mL of MTT was added
(§29) to each sample and incubated for 4 h at 37 °C. Only viable cells are able to convert the soluble dye MTT into
(§30) the insoluble formazan crystals. After the incubation the MTT supernatant solution was removed, the cells
(§31) were washed in phosphate-buffered saline (PBS) and centrifuged while the pellet was dissolved in 2 mL of
(§32) isopropanol. After centrifugation of the solution at 4,000 rpm for 5 min, the absorbance for each sample was
(§33) assessed by means of a Bauty Diagnostic Microplate Reader at 578 nm. All experiments were performed in 24-
(§34) well plates (1 × 10^5 cells/mL/well) and repeated in triplicate.

tyrosinase = tyrosinase (Agaricus bisporus, UniProt C7FF04); test: Tyrosinase amperometric biosensor: IC50 and type of inhibition; assay type: biochemical; details: for Type of Inhibition Tyrosinase: Lineweaver-Burk plot, biosensor exposed 30 min to twice the lowest inhibiting concentration; for VMAX, substrate + inhibitor, TYR: dopamine calibration 0-140 mM after inhibitor exposure, n=4 biosensors;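 as to all read-outs here: Carbon-composite amperometric tyrosinase biosensors with polyurethane-entrapped enzyme, calibrated in a three-electrode cell against Ag/AgCl at room temperature, before versus after inhibitor exposure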
Chain of tyrosinase (C7FF04 2-392): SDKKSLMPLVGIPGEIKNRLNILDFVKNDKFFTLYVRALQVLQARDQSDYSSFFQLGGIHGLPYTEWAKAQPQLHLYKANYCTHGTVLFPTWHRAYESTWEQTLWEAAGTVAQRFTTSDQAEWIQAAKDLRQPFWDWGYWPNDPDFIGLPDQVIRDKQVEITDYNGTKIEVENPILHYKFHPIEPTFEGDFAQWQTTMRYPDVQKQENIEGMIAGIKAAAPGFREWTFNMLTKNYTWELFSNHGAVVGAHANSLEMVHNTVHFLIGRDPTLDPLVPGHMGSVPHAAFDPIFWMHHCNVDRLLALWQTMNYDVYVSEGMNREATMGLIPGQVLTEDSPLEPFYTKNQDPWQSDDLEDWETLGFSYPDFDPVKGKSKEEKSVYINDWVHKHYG
Protocol: as §1, §2, §3, §4, §5, §6, §7, §8, §9, §10, §11, §12, §13, §14, §15, §16, §17, §18, §19, §20

PC12 cells [2] = test: Protection of PC12 cells against MnCl2 damage (MTT); assay type: cell-based, rat; details: concentration with significant increase in viability vs MnCl2; co-treatment with 1 mM MnCl2; n.p.: no protection
Protocol: as §22, §23, §24, §25
(§35) concentrations ranging from 1 to 40 μM, to evaluate their eventual toxicity. Then, in order to assess the
(§36) eventual compounds’ protection properties, PC12 cell treated with hydrogen peroxide (100μM) in association
with increasing concentration of the above-mentioned molecules, from 1 up to 20 μM. For the compounds that
against MnCl2 insult. For all treatments cell viability was measured by means of MTT assay, as explained in
as §27
For this purpose, 1 mg/mL of MTT was added
as §29
the insoluble formazan crystals. After the incubation the MTT supernatant solution was removed, the cells […]
as §32
assessed by means of a Bauty Diagnostic Microplate Reader at 578 nm. […]

PC12 cells [3] = test: Protection of PC12 cells against H2O2-induced oxidative stress (MTT); assay type: cell-based, rat; details: for H2O2 Damage Protection: concentration with significant increase in viability vs H2O2, co-treatment with 100 μM H2O2, n.p.: no protection
Protocol: as §21, §22, §23, §24, §25, §35, §36
with increasing concentration of the above-mentioned molecules, from 1 up to 20 μM.
as §26, §27, §28, §29, §30, §31, §32, §33, §34

Type of Inhibition Laccase (laccase) | VMAX, substrate + inhibitor, LAC (laccase) [nA] | VMAX, substrate + inhibitor, TYR (tyrosinase) [nA] | IC50 (laccase) [nM] | % inhibition of tyrosinase (mushroom tyrosinase; comparable with both substrates, tyrosine 80 µM, inhibitor 20 µM, 24 min, dopamine 10-fold diluted solutions, 10 min) [%] | melting point [°C] | Compound | pest or weed control at 6400 µg/mL (Tenebrio molitor) [%] | tyrosinase inhibition in words, tyrosine versus dopamine as substrate (mushroom tyrosinase) | Toxic Concentration (PC12 cells [1]) | Type of Inhibition Tyrosinase (tyrosinase) | MnCl2 Damage Protection (PC12 cells [2]) | H2O2 Damage Protection (PC12 cells [3]) | change of cell viability versus H2O2 alone, in words (PC12 cells [3]; co-treatment with 100 μM H2O2, compounds 1 up to 20 μM)
competitive | 89.2±7.7 | 31.5±2.9 | 212 | 10 | – | COc1cc(/C=C/C(=O)c2ccccc2)ccc1O [Compound 10] | – | – | >20 µM | uncompetitive or mixed; also recorded: mixed | n.p. | 20 µM | –
competitive | 111.4±8.9 | 123.5±9.8 | 130 | – | 176 to 178 | OC[C@H]1O[C@@H](Oc2ccc(-c3ccc(O)c(Br)c3)cc2Br)[C@H](O)[C@@H](O)[C@@H]1O [Compound 19, (2S,3R,4S,5S,6R)-2-((3,3’-dibromo-4’-hydroxy-[1,1’-biphenyl]-4-yl)oxy)-6-(hydroxymethyl)tetrahydro-2H-pyran-3,4,5-triol] | – | predominant inhibition of tyrosine oxidation | none | noncompetitive | – | n.p. | significant decrease (p < 0.05 vs H2O2) in cells viability at all concentrations tested

Compound | Type of Inhibition Laccase (laccase) | VMAX, substrate + inhibitor, LAC (laccase) [nA] | VMAX, substrate + inhibitor, TYR (tyrosinase) [nA] | IC50 (laccase) [nM] | % inhibition of tyrosinase (mushroom tyrosinase; comparable with both substrates, tyrosine 80 µM, inhibitor 20 µM, 24 min, dopamine 10-fold diluted solutions, 10 min) [%] | melting point [°C] | pest or weed control at 6400 µg/mL (Tenebrio molitor) [%] | tyrosinase inhibition in words, tyrosine versus dopamine as substrate (mushroom tyrosinase) | Toxic Concentration (PC12 cells [1]) | Type of Inhibition Tyrosinase (tyrosinase) | MnCl2 Damage Protection (PC12 cells [2]) | H2O2 Damage Protection (PC12 cells [3]) | change of cell viability versus H2O2 alone, in words (PC12 cells [3]; co-treatment with 100 μM H2O2, compounds 1 up to 20 μM)
CC(=O)C=Cc1ccc(O)cc1O [Compound 7, reference compound] | competitively; also recorded: competitive | 188.4±9.0 | 114.1±12.5 | – | – | – | 5 ± 7.07 | most active tyrosinase inhibitor in the presence of both substrates | >10 µM | competitively; also recorded: competitive | n.p. | 1 µM | –
